The values that follow come from publication PMC3172709 (Journal of pharmacy & pharmaceutical sciences : a …, 2011).

Several values for one entry are separate records, joined by “and”; a condition that tells them apart may be missing. Equal entries are not always repeated. Where two headings read alike, the source gives them in different places.

The EC50 is the concentration giving half of the maximal effect. Low readings indicate higher potency in that assay, high ones lower potency in that assay.

The conditions of series [1]: ref Facts & Comparisons 4.0, online edition, cited from earlier work.
For series [2], the system named is P-gp. Description: in vitro. The conditions noted are these: human, EC50 to up-regulate P-gp expression.
Series [3] has as its system P-gp.
Series [4] concerns P-gp. Kind of series: in vitro. The conditions noted are these: human, EC50 to up-regulate P-gp activity.
Another series deals with MDR1 mRNA. The note with it: LS-180 cells, 48 h, 50 μM.
The test system of series [5] is P-gp. Description: Western blot analysis of P-gp protein expression in drug-treated LS-180 cells. (A western blot detects proteins with antibodies after separation by electrophoresis.)
The subject of series [6] is P-gp. The conditions noted are these: rat, three-day in vivo treatment, 20 mg/kg once daily; cited from earlier work.

On to `CO[C@H]1/C=C/O[C@@]2(C)Oc3c(C)c(O)c4c(O)c(c(/C=N/N5CCN(C)CC5)c(O)c4c3C2=O)NC(=O)/C(C)=C\C=C\[C@H](C)[C@H](O)[C@@H](C)[C@@H](O)[C@@H](C)[C@H](OC(C)=O)[C@@H]1C` [Rifampicin], for which the “plasma concentrations, range” value in series [1] (following 600 mg dose) was 5 to 38 µM. Further, it took 5 µM to reach a half-maximal effect with P-gp [2] (EC50 at 48 h). Further, in the series on P-gp [3] (LS-180 cells, 48 h, over the range 5–100 μM), the “increase in P-gp activity” value is reported as 60–290%.

As for `C[C@@H]1C[C@H]2[C@@H]3CCC4=CC(=O)C=C[C@]4(C)[C@@]3(F)[C@@H](O)C[C@]2(C)[C@@]1(O)C(=O)CO` [Dexamethasone, dexamethasone], in the series with P-gp [2], a half-maximal effect (EC50 at 48 h) was put at 46 µM.

For `C1CCc2nnnn2CC1` [Pentylenetetrazole, pentylenetetrazole], the EC50 at 48 h was 11.8 µM in the series on P-gp [4] and over 50 µM in the series on P-gp [5] (human, EC50 to up-regulate P-gp expression, following normalization to 100%). For the same compound, the “fold increase in MDR1 mRNA level” value in the series with MDR1 mRNA is ~ 3 fold and 3–4 fold. The “increase in P-gp expression” value in the series on P-gp [5] (48 h, 50 μM) was ~ 10%; with P-gp [5] (48 h, 100 μM) it was 100%. Besides, in the series with P-gp [5] (48 h, concentrations at 50 μM and higher), the “up-regulation of P-gp protein levels” value was at most 2 fold. Besides, in the series with P-gp [3] (LS-180 cells, 48 h, 50 μM), the “induction in P-gp activity” value was 70%. For the same compound, the “increase in P-gp activity” value was ~ 80% in the series on P-gp [3] (LS-180 cells, 48 h, concentration range 25–100 μM) and 80% with P-gp [3] (LS-180 cells, 48 h, concentration range 25–100 μM, listed as pentylenetetrazole). Besides, in the series with P-gp [3] (LS-180 cells, 48 h, four-parameter Hill fit), the “Emax (fold ↑ in P-gp activity)” value came out at 2.0 fold.

For the compound hyperforin, the “increase in P-gp activity” value with P-gp [3] (LS-180 cells, 48 h, 50 nM) amounted to 110%; in the series with P-gp [3] (LS-180 cells, 48 h, 150 nM), 190%.

Consider `CC(C)c1nc(CN(C)C(=O)N[C@H](C(=O)N[C@@H](Cc2ccccc2)C[C@H](O)[C@H](Cc2ccccc2)NC(=O)OCc2cncs2)C(C)C)cs1` [ritonavir], for which the “increase in P-gp expression at the BBB” value in the series with P-gp [6] was 30%.

Take `Cn1c(=O)c2c(ncn2C)n(C)c1=O` [Caffeine, caffeine]: in series [1] (after 250 mg dose), the “plasma concentration, range” value is 25 to 130 µM. Moreover, in the series with P-gp [2], the EC50 at 48 h stood at 9.1 µM. Moreover, the “increase in P-gp activity” value with P-gp [3] is listed as 250–300%.
